In patent US10604526B2, “Chemokine receptor modulators and uses thereof” (RAPT THERAPEUTICS, INC., priority 2016, dated 2020):

Target: T1, hCCR4 (Homo sapiens, UniProt P51679)
T1 sequence (P51679 1-360): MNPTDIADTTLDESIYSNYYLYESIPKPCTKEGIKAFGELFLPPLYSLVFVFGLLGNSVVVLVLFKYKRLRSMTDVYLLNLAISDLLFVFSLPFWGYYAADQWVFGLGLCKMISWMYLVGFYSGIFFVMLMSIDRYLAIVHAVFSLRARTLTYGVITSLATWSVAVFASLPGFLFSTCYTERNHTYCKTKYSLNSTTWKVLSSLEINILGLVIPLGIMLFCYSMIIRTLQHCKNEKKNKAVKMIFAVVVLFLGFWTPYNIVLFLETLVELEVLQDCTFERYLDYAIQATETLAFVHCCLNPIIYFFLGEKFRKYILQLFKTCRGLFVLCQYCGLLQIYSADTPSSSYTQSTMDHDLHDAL
Test: Calcium flux assay
Type: cell-based
Conditions: Chem5-hCCR4 cells, CCL22 at EC80 of 1.5 nM, FLIPR Calcium 6 dye; read-out: Potency (IC50)
Method: Calcium Flux Assay. Compounds were evaluated in a calcium flux assay substantially performed as follows. Chem5-hCCR4 cells (EMD Millipore, Hayward, Calif.; HTS009C) were cultured under standard conditions and frozen in aliquots of 10×10^6 cells/mL. The day prior to compound testing, a vial was rapidly thawed and pipetted into 20 mL media (DMEM+10% FBS+1% Pen-Strep+1% L-glutamine). Cells were harvested by centrifugation and re-suspended in fresh culture medium. 25 μL of cell suspension was seeded into 384-well plates (Corning, Tewksbury, Mass.; CellBind with black wall/clear bottom). The plates were centrifuged at 300 g for 10 seconds and incubated overnight at 37° C. and 5% CO2. The day of compound testing, media was removed from the plates and 25 μL serum free media was added to each well. Plates were returned to the incubator for 2 h. 25 μL assay buffer (Hank's balanced salt solution+20 mM HEPES pH 7.4) containing FLIPR Calcium 6 dye (Molecular Devices, Sunnyvale, Calif.; # R8191) and probenecid (2.5 mM) was added to each well and incubated at 37° C. and 5% CO2 for 2 h. Compounds in DMSO were added to the plates using an HP D300e digital dispenser, and all wells were normalized to contain 0.25 μL (0.5%) DMSO. Plates were incubated for 1 hour at 37° C. and 5% CO2. CCL22 (Peprotech; Rockyhill, N.J.) was diluted in assay buffer containing 0.1% BSA to 7.5 nM (corresponding to 5×EC80 of 1.5 nM).
Assay plates and working solution of CCL22 were transferred to the FlexStation plate reader (Molecular Devices) at 37° C. for 5 min of equilibration. Fluorescence recordings at 485 excitation/525 emission were performed at 2.5 second intervals. At t=16 seconds, 12.5 μL of CCL22 solution was added to each well and reads continued for 30 seconds at 2.5 second intervals. The minimum fluorescence (Fmin) was calculated by averaging the reads prior to ligand addition and the change in fluorescence (ΔF) was calculated by subtracting the Fmin from the average of the reads following ligand addition. The response ΔF/Fmin was plotted as a function of the compound concentration and the IC50 values were determined by non-linear regression analysis using a 4-parameter fit in either PRISM software (GraphPad; La Jolla, Calif.) or Dotmatics Browser.

| Structure (SMILES) | IC50 |
| --- | --- |
| Cc1nn([C@H](C)c2ccc(Cl)cc2Cl)c2nc(N3CC(C4CCCN(CCO)C4)C3)ncc12 (mixture of isomers) [Example 37, 2-((S)-3-(1-(1-((R)-1-(2,4-Dichlorophenyl)ethyl)-3-methyl-1H-pyrazolo[3,4-d]pyrimidin-6-yl)azetidin-3-yl)piperidin-1-yl)ethan-1-ol and 2-((R)-3-(1-(1-((R)-1-(2,4-dichlorophenyl)ethyl)-3-methyl-1H-pyrazolo[3,4-d]pyrimidin-6-yl)azetidin-3-yl)piperidin-1-yl)ethan-1-ol] | < 100 nM |
| Cc1nn([C@H](C)c2ccc(Cl)cc2Cl)c2nc(N3CC([C@H]4CCCN(CCCS(C)(=O)=O)C4)C3)cnc12 (single isomer, unassigned) [Example 114] | < 100 nM |
| Cc1nn([C@H](C)c2ccc(Cl)cc2Cl)c2nc(N3CC(C4CCCN(C5CC(C(=O)O)C5)C4)C3)cnc12 (mixture of isomers) [Example 16] | > 500 nM |
| C[C@H](c1ccc(Cl)cc1Cl)n1nc(C#N)c2ncc(N3CC([C@@H]4CCCN(Cc5cnc[nH]5)C4)C3)nc21 (single isomer, unassigned) [Example 111] | 100 to 500 nM |
| CCCN1CCC[C@H](C2CN(c3cnc4c(C#N)nn([C@H](C)c5ccc(Cl)cc5Cl)c4n3)C2)C1 (single isomer, unassigned) [Example 73] | < 100 nM |
| Cc1nn([C@H](C)c2ccc(Cl)cc2Cl)c2nc(N3CC([C@@H]4CCCN(CCC(N)=O)C4)C3)cnc12 (single isomer, unassigned) [Example 12] | 100 to 500 nM |
| C[C@H](c1ccc(Cl)cc1Cl)n1nc(C#N)c2ncc(N3CC([C@H]4CCCN(Cc5ncc[nH]5)C4)C3)nc21 (single isomer, unassigned) [Example 80] | < 100 nM |
| Cc1nn([C@H](C)c2ccc(Cl)cc2Cl)c2nc(N3CC([C@H]4CCCN(CCO)C4)C3)ncc12 (single isomer, unassigned) [Example 38] | < 100 nM |
| Cc1nn([C@H](C)c2ccc(Cl)cc2Cl)c2nc(N3CC([C@H]4CCCN(CCCC(=O)O)C4)C3)cnc12 (single isomer, unassigned) [Example 10] | < 100 nM |
| Cc1nn([C@H](C)c2ccc(Cl)cc2Cl)c2nc(N3CC([C@H]4CCCN(CCNS(C)(=O)=O)C4)C3)cnc12 (single isomer, unassigned) [Example 99] | < 100 nM |
| CC(O)CN1CCC[C@H](C2CN(c3cnc4c(C#N)nn([C@H](C)c5ccc(Cl)cc5Cl)c4n3)C2)C1 (single isomer, unassigned) [Example 29] | < 100 nM |
| Cc1nn([C@H](C)c2ccc(Cl)cc2Cl)c2nc(N3CC(C4CCCN(CCNS(C)(=O)=O)C4)C3)cnc12 (mixture of isomers) [Example 64, N-[2-[(R)-3-[1-[1-[(1R)-1-(2,4-dichlorophenyl)ethyl]-3-methyl-pyrazolo[3,4-b]pyrazin-6-yl]azetidin-3-yl]-1-piperidyl]ethyl]methanesulfonamide and N-[2-[(S)-3-[1-[1-[(1R)-1-(2,4-dichlorophenyl)ethyl]-3-methyl-pyrazolo[3,4-b]pyrazin-6-yl]azetidin-3-yl]-1-piperidyl]ethyl]methanesulfonamide] | < 100 nM |
| C[C@H](c1ccc(Cl)cc1Cl)n1nc(C(F)(F)F)c2ncc(N3CC([C@H]4CCCN(CCCS(C)(=O)=O)C4)C3)nc21 (single isomer, unassigned) [Example 116] | < 100 nM |
| CC(C)S(=O)(=O)NCCN1CCC[C@H](C2CN(c3cnc4c(C(F)(F)F)nn([C@H](C)c5ccc(Cl)cc5Cl)c4n3)C2)C1 (single isomer, unassigned) [Example 109] | < 100 nM |
| CC(=O)NCCN1CCCC(C2CN(c3cnc4c(C)nn([C@H](C)c5ccc(Cl)cc5Cl)c4n3)C2)C1 (mixture of isomers) [Example 63, N-(2-((R)-3-(1-(1-((R)-1-(2,4-dichlorophenyl)ethyl)-3-methyl-1H-pyrazolo[3,4-b]pyrazin-6-yl)azetidin-3-yl)piperidin-1-yl)ethyl)acetamide and N-(2-((S)-3-(1-(1-((R)-1-(2,4-dichlorophenyl)ethyl)-3-methyl-1H-pyrazolo[3,4-b]pyrazin-6-yl)azetidin-3-yl)piperidin-1-yl)ethyl)acetamide] | < 100 nM |
| CC(=O)N[C@@H](C)CN1CCC[C@H](C2CN(c3cnc4c(C(F)(F)F)nn([C@H](C)c5ccc(Cl)cc5Cl)c4n3)C2)C1 [Example 106, N—((S)-1-((R)-3-(1-(1-((R)-1-(2,4-dichlorophenyl)ethyl)-3-(trifluoromethyl)-1H-pyrazolo[3,4-b]pyrazin-6-yl)azetidin-3-yl)piperidin-1-yl)propan-2-yl)acetamide] | < 100 nM |
| Cc1nn([C@H](C)c2ccc(Cl)cc2Cl)c2nc(N3CC([C@@H]4CCCN(CCCS(C)(=O)=O)C4)C3)cnc12 (single isomer, unassigned) [Example 113] | 100 to 500 nM |
| C[C@H](c1ccc(Cl)cc1Cl)n1nc(C#N)c2ncc(N3CC([C@@H]4CCCN(CCCC(=O)N(C)C)C4)C3)nc21 (single isomer, unassigned) [Example 74] | 100 to 500 nM |
| C[C@H](c1ccc(Cl)cc1Cl)n1nc(C#N)c2ncc(N3CC([C@H]4CCCN(CCCC(=O)O)C4)C3)nc21 (single isomer, unassigned) [Example 18] | < 100 nM |
| Cc1nn([C@H](C)c2ccc(Cl)cc2Cl)c2nc(N3CC([C@@H]4CCCN(CCC(=O)O)C4)C3)cnc12 (single isomer, unassigned) [Example 9] | > 500 nM |
| CC(=O)NCCN1CCCC(C2CN(c3cnc4c(C(F)(F)F)nn([C@H](C)c5ccc(Cl)cc5Cl)c4n3)C2)C1 (mixture of isomers) [Example 45, N-(2-((R)-3-(1-(1-((R)-1-(2,4-Dichlorophenyl)ethyl)-3-(trifluoromethyl)-1H-pyrazolo[3,4-b]pyrazin-6-yl)azetidin-3-yl)piperidin-1-yl)ethyl)acetamide and N-(2-((S)-3-(1-(1-((R)-1-(2,4-dichlorophenyl)ethyl)-3-(trifluoromethyl)-1H-pyrazolo[3,4-b]pyrazin-6-yl)azetidin-3-yl)piperidin-1-yl)ethyl)acetamide] | 100 to 500 nM |
| C[C@H](c1ccc(Cl)cc1Cl)n1nc(C#N)c2ncc(N3CC([C@H]4CCCN(CCC(N)=O)C4)C3)nc21 (single isomer, unassigned) [Example 26] | < 100 nM |
| CC(=O)NCCN1CCC[C@@H](C2CN(c3cnc4c(C(F)(F)F)nn([C@H](C)c5ccc(Cl)cc5Cl)c4n3)C2)C1 (single isomer, unassigned) [Example 86] | 100 to 500 nM |
| C[C@H](c1ccc(Cl)cc1Cl)n1nc(C(F)(F)F)c2ncc(N3CC(C4CCCN(CCNS(C)(=O)=O)C4)C3)nc21 (mixture of isomers) [Example 46, N-(2-((R)-3-(1-(1-((R)-1-(2,4-Dichlorophenyl)ethyl)-3-(trifluoromethyl)-1H-pyrazolo[3,4-b]pyrazin-6-yl)azetidin-3-yl)piperidin-1-yl)ethyl)methanesulfonamide and N-(2-((S)-3-(1-(1-((R)-1-(2,4-dichlorophenyl)ethyl)-3-(trifluoromethyl)-1H-pyrazolo[3,4-b]pyrazin-6-yl)azetidin-3-yl)piperidin-1-yl)ethyl)methanesulfonamide] | 100 to 500 nM |
| COC(=O)NCCN1CCCC(C2CN(c3cnc4c(C)nn([C@H](C)c5ccc(Cl)cc5Cl)c4n3)C2)C1 (mixture of isomers) [Example 67, Methyl (2-((R)-3-(1-(1-((R)-1-(2,4-dichlorophenyl)ethyl)-3-methyl-1H-pyrazolo[3,4-b]pyrazin-6-yl)azetidin-3-yl)piperidin-1-yl)ethyl)carbamate and methyl (2-((S)-3-(1-(1-((R)-1-(2,4-dichlorophenyl)ethyl)-3-methyl-1H-pyrazolo[3,4-b]pyrazin-6-yl)azetidin-3-yl)piperidin-1-yl)ethyl)carbamate] | < 100 nM |
